Assays:
[1] = test system: relapsed/refractory multiple myeloma; assay: Open-label Phase II study of bortezomib in relapsed, refractory myeloma: IRC confirmed response (Blade criteria); format: in vivo, human
Procedure: An Open-Label Phase II Study of Bortezomib in Patients with Myeloma Who Have Relapsed Following Front-Line Therapy and are Refractory to their Most Recent Therapy
(§1) A multicenter, open-label, non-randomized Phase 2 trial was conducted, wherein enrolled were patients with relapsed myeloma that was refractory to therapy. Patients were treated with 1.3 mg of bortezomib per square meter of body surface area, twice weekly for two weeks, followed by one week without treatment, for up to eight cycles (24 weeks).
(§2) Statistical analysis focused on the need to estimate response rates within specified limits of accuracy in order to determine if either of the two dose levels 1.0 or 1.3 mg/m^2/dose alone or in combination with dexamethasone are sufficiently efficacious to warrant further clinical study. This study was noncomparative in nature; therefore efficacy comparisons between the two doses of bortezomib were not performed. In addition, this study provided safety data that helped to characterize the potential toxicity of treatment at the two evaluated dose levels for up to eight cycles of therapy.
A formal statistical analysis plan was developed and finalized prior to database lock. The primary efficacy analyses were performed on the intent-to-treat (ITT) population. The primary efficacy analysis were performed on the rates of responders, where a responder was defined as a CR, PR, or MR using the criteria prospectively established in Table C. Two-sided 90% confidence limits on proportions of responders in each dose group were established, corresponding to a 95% one-sided lower limit.
Based on the criteria reported by Kraut et al., J. Clin. Oncol. 16(2): 589-592 (1998) and Blade et al., Br. J. Haematol. 102(5): 1115-1123 (1998). In patients with CR, bone marrow was analyzed using PCR for verification of CR at the molecular level.
The Independent Review Committee (IRC) evaluation of confirmed response to treatment with bortezomib alone is provided in Table D; further categorization of response for those patients who experienced partial remission is provided in Table E. This independent panel panel of three medical oncologists reviewed all data for 193 evaluable patients in the trial and assigned response using Blade criteria (Table C). […] An additional 46 (24%) of patients had evidence for stable disease (NC, no change) in response to bortezomib alone, which reflects an improvement in status for these patients who were progressing at the time of study entry. Based on the IRC assessment, 38 (20%) of the 193 patients had progressive disease and an additional 42 patients (22%) were considered not evaluable for response by the IRC. […] See Richardson PG, et al., New Eng. J. Med.; 348: 2609-17 (2003).

[2] = set-up: species or system human; settings: in vivo
Procedure: as §1, §2
Over 80% of the 78 patients completed 2 or more cycles of treatment, 62% completed 4 or more cycles, and 27% completed 8 cycles.

[3] = test system: OVCAR-3 and RPMI8226 resistant sub-clones; assay: Bortezomib resistant tumor cell lines generated by repeated dosing: resistance to bortezomib; format: cell-based; settings: sub-clones selected after dosing with 3-5 times the LD50; vs parental lines
Procedure: In order to better understand the specific mechanism(s) by which proteasome inhibitors exert their apoptotic effects, as well as to elucidate mechanisms by which those effects may be subverted, bortezomib resistant tumor cell lines were generated. […] The drug was then removed and surviving cells were allowed to recover for 24 to 72 hours. This process was then repeated for multiple rounds with the bortezomib dose doubled each time. After cells had been dosed with 3-5 times the LD50, several individual cell lines were sub-cloned from single cell colonies. […] This strategy was applied to both ovarian tumor cell lines (OVCAR-3) and myeloma tumor cell lines (RPMI8226) and multiple sub-clones were characterized. The resistant cell lines were then subject to gene expression profiling using the Affymetrix U133 microarray. A comparison of genes differentially expressed in sensitive parental (S) versus resistant sub-clones (R) highlighted several genes that were also identified in analysis of sensitive and resistant myeloma biopsies. The number identified in Table 8 corresponds to the marker number identification in Table 1. Such results not only highlight a potential relationship between expression of these genes and bortezomib sensitivity, but also support the validity of methods used to define response genes in clinical samples.

[4] = test system: human tumor xenograft models; settings: cited from earlier work
[5] = IRC assessment, bortezomib alone, N = 193
[6] = IRC confirmed, bortezomib alone, N = 193

SMILES: CC(C)C[C@H](NC(=O)[C@H](Cc1ccccc1)NC(=O)c1cnccn1)B(O)O [bortezomib, N-pyrazinecarbonyl-L-phenylalanine-L-leucineboronic acid]
- CR+PR rate ([1]; 202 patients enrolled, PS-341 alone, prior to added dexamethasone): 27%
- overall response rate to PS-341 alone ([1]; 202 patients enrolled, prior to any patients receiving added dexamethasone): 35%
- Not Evaluable for response, number of patients [1, 5]: 42 patients
- Not Evaluable for response, percent of patients [1, 5]: 22%
- Complete + Partial + Minor Responses, number of patients ([1]; IRC confirmed, bortezomib alone, 1.3 mg/m2 twice weekly, N = 193): 67 patients
- Complete + Near Complete Remissions (NCR), number of patients [1, 6]: 19 patients
- Complete + Near Complete Remissions (NCR), percent of patients [1, 6]: 10%
- Complete + Partial + Minor Responses, percent of patients [1, 6]: 35%
- Complete + Partial Remissions, number of patients [1, 6]: 53 patients
- Complete + Partial Remissions, percent of patients [1, 6]: 27%
- Complete Remission (CR), number of patients [1, 6]: 19 patients
- Complete Remission (CR), percent of patients [1, 6]: 4%
- Minor Response (MR), number of patients [1, 6]: 14 patients
- Minor Response (MR), percent of patients [1, 6]: 5%
- No Change (stable disease), number of patients [1, 6]: 46 patients
- No Change (stable disease), percent of patients [1, 6]: 27%
- Partial Remission (PR), number of patients [1, 6]: 34 patients
- Partial Remission (PR), percent of patients [1, 6]: 23%
- Progressive Disease, number of patients [1, 6]: 38 patients
- Progressive Disease, percent of patients [1, 6]: 20%
- tolerability of the dose [2]: well tolerated
- resistance to bortezomib of resistant sub-clones [3]: 5-10 fold
- antitumor activity [4]: demonstrated antitumor activity
